Reference: patent US9204639B2, “Pesticide preparation and process for producing the same” (BAYER INTELLECTUAL PROPERTY GMBH, priority 2011, dated 2015)
Values after ≈ are worked out from the molar mass of the structure shown.

How the values were obtained:
[1] = format: physicochemical
Method: To 31.0 g of tefuryltrione and 11.5 g of diphenylamine (equivalent mol to tefuryltrione), 10 mL of toluene was added and refluxed under heating at 90° C. for 1 hour. […] The melting point of the obtained compound was measured using a DSC (Differential Scanning calorimetry) and compared with those of the starting materials (Table 1).
The solubilities of the pesticide active ingredients in toluene and a toluene/isooctane mixture liquid (80/20, v/v) at room temperature were determined (Table 2).

[2] = cited from earlier work

CS(=O)(=O)c1ccc(C(=O)C2C(=O)CCCC2=O)c(Cl)c1COCC1CCCO1 (stereo not shown) [Tefuryltrione, tefuryltrione]
Solubility, Toluene [1]: 97.8 mg/mL (≈ 221 mM)
Solubility, Toluene/isooctane mixture liquid (80/20, v/v) [1]: 49.4 mg/mL (≈ 112 mM)

c1ccc(-c2ccccc2)cc1 [biphenyl]
Water solubility [2]: 7 ppm

c1ccc(C(c2ccccc2)c2ccccc2)cc1 [triphenylmethane]
Water solubility (in words) [2]: water insoluble
